Results taken from patent US9434759B1, “Cationic steroidal antimicrobial compounds and methods of manufacturing such compounds” (BRIGHAM YOUNG UNIVERSITY, priority 2015, dated 2016).

System: Radiation Induced Oral Mucositis
Experiment: Syrian Hamster Model Radiation Induced Oral Mucositis Study
Format: in vivo
Conditions: 40 Gy radiation Day 0
Protocol: Various CSA compounds were screened to determine and compare therapeutic effect on oral mucositis. The test was conducted according to a Syrian Hamster Model Radiation Induced Oral Mucositis Study Design as in Table 1. [table] The objective of the study was to identify compounds that can maintain oral mucositis score below 3 in hamster model according to the scoring system in Table 2. [table]

CCCCCCCCNC(=O)CC[C@@H](C)[C@H]1CC[C@H]2[C@@H]3[C@H](OCCCN)C[C@@H]4C[C@H](OCCCN)CC[C@]4(C)[C@H]3C[C@H](OCCCN)[C@]12C [CSA-192]
reduction in oral mucositis (percent of animal days with mucositis, FIG. 2) (topical T.I.D. Day -1 to 28, 300 or 1000 ppm, mucositis evaluated Day 6 to 28): greater than 90%
oral mucositis severity scores (FIG. 3) (topical T.I.D. Day -1 to 28, score 0-5 every 2 days, Day 6 to 28): strongest and longest lasting reduction in oral mucositis
